Laboratory results reported in patent publication US20120190868A1, “SUBSTITUTED BENZOCHALCOGENOACENE COMPOUND, THIN FILM COMPRISING THE COMPOUND, AND ORGANIC SEMICONDUCTOR DEVICE INCLUDING THE THIN FILM” (NATIONAL UNIVERSITY CORPORATION NAGOYA UNIVERSITY, priority 2009, published 2012).

Test: Solubility of the compound in a solvent (preparation of solution composition)
Assay type: physicochemical
Method: The solution composition containing the compound [5] in 0.5 wt % concentration was prepared by dissolving the compound [5] manufactured in Example 1 in tetrahydrofuran.
On the substrate obtained by a similar procedure to Example 8, a 0.5 wt % dichlorobenzene solution of the compound [14] heated at 100° C. was applied by the spin coating method and dried on a hot plate of 120° C. for 30 minutes to result in the formation of a thin film containing the compound and having a thickness of about 30 nm.

concentration of solution of the compound (solubility in a solvent) (dichlorobenzene, heated at 100° C.) [wt %]	concentration of solution composition prepared by dissolving the compound (solubility in a solvent) (tetrahydrofuran) [wt %]	SMILES
0.5	–	CCCCCCCCCCCCc1ccc2c(c1)sc1c2sc2c3ccc(CCCCCCCCCCCC)cc3sc21 [[14]]
–	0.5	CCCCCCc1ccc2c(c1)sc1c2sc2c3ccc(CCCCCC)cc3sc21 [[5]]
